# Experimental data reported in US7276233B2, “Methods of treating neoplasia with combinations of target cell-specific adenovirus and chemotherapy” (priority 2001, dated 2007).
# Like-named read-outs stand apart in the source and are kept apart here.
# Experiments:
# [1] = format: in vivo, Balb/C mice; settings: docetaxel alone
# Source text: Finally, and of clinical significance are two other results. […] Indeed, animals treated with both CV787 and taxotere gain 24% more weight than untreated control animals (Table 2).
# [2] = tested on: LNCaP (prostate carcinoma) cells; test: cells; format: cell-based, human; settings: for cell survival: LNCaP, CV787 MOI 0.01
# Protocol: In preliminary experiments, we examined the chemosensitivity to different agents, as well as the oncolytic effect of CV787 in the prostate carcinoma LNCaP cells. Cells were plated in 96-well plates at a density of 20,000 cells per well. […] […] Cells were incubated at 37° C. in 5% CO2 for an additional two days. Cell viability was measured using the MTT assay. Mosmann et al., (1983). Briefly, 50 μl of 1 mg/ml MTT vital dye (Sigma, St. Louis, Mo.) was added to each well and allowed to incubate for 3 h at 37° C. and 5% CO2. Then, plates were drained to remove untransformed MTT and blot. 100 μl of isopropanol was added to each well, the plate was incubated for 15 minutes and vigorously shaken (Microshaker II, Dynatech) in order to ensure solubilization of the blue formazan. The optical density of each well was quantitated using an automatic plate reader (Molecular Devices, Sunnyvale, Calif.) with a 560 nm test wavelength and 690 nm reference wavelength. Cell viability was defined as the ratio of the mean absorbance of 9 treatment wells minus the blank to the mean absorbance of 6 untreated matched controls minus the blank. […] Each experiment was performed at least twice.
# To study potential synergy or enhancement in treatment when administering CV787 and chemotherapy in vitro, the effectiveness of the combined treatment at several concentrations of paclitaxel, ranging from 0-62.5 nM, […], with CV787 at various MOIs, ranging from 0-10 MOI, was evaluated in the prostate carcinoma LNCaP cells. Cells were treated with CV787 and paclitaxel or docetaxel and the cell viability was determined at various time points after treatment by an MTT assay, as shown in FIGS. 2-4. […] To determine whether the timing of administration for the testing articles affected the combined oncolytic effect, LNCaP cells were treated with paclitaxel for 24 hours before or after infection with CV787.
# The protocols described above were used to screen a number of different chemotherapeutic agents from various classes of chemotherapeutics. […]
# [3] = tested on: LNCaP prostate tumor xenografts; format: in vivo, athymic Balb/c nu/nu mice; settings: for change in tumor growth (FIG. 24): alone or with CV787 1×10^10 particles, 5 week period
# [4] = tested on: caspase-7, poly-ADP-ribose-polymerase, Fas/Fas-L, Bcl-2, Bcl-XL, Bax; test: Immunoblot of apoptosis related protein markers in treated LNCaP cells; format: cell-based, human; settings: docetaxel 6.0 nM, CV787 MOI 0.5
# Source text: Enhanced chemiluminescence (ECL; Amersham Pharmacia) was used for detection. […] All antibodies were used according manufacturer's instruction.
# [5] = tested on: LNCaP prostate tumor xenografts; format: in vivo, athymic Balb/c nu/nu mice
# Source text: Six to eight week old athymic Balb/c nu/nu mice were obtained from Simonson Laboratories (Gilroy, Calif.) and acclimatized to laboratory conditions one week prior to tumor implantation. Xenografts were established by injecting 1×10^6 LNCaP cells, suspended in 100 μd of RPMI 1640 and 100 μd of matrigel, subcutaneously near the small of the back. When tumors reached between 400 mm^3 and 600 mm^3, mice were randomized into groups of four. The first group received 1×10^10 particles of CV787 at day 1 via the tail vein intravenously (i.v.). CV787 was diluted in 0.1 ml lyophilized buffer (5% sucrose, 1% glycine, 1 mM MgCl2, 0.05% Tween-80 in 10 mM Tris buffer) and injected into the tail vein using a 28-gauge needle. The second group was given taxane only. Paclitaxel was intraperitoneally administered at a dose of 20 mg/kg, daily for 4 days starting at day 2. Docetaxel was intravenously administered at a dose of 5 or 12.5 mg/kg at day 2, 5 and 8. The third group was given CV787 (i.v.) at day 1 and taxane at the same doses and schedule as the second group. As a control, a fourth group was treated with 0.1 ml of normal saline (i.e. control) i.v. at day 1 and then i.p. or i.v. for 4 days. The dose and route of administration of paclitaxel were selected according to studies in nude mice (Riondel, J. et al., 1986, Cancer Chemother Pharmacol. 17:137-42.) (Chahinian, A. P. et al., 1998, J. Surg. Onc. 67:104-111.). For docetaxel, the dose was selected based on the human clinical dose. (RPR Pharm. Inc., Collegeville, Pa.) and determined by a dose-range finding study in nude mice. Tumors were measured weekly in two dimensions by external caliper and volume was estimated by the formula [length (mm)×width (mm)^2]/2 (7). Animals were humanely killed when their tumor burden became excessive. Serum was harvested weekly by retro-orbital bleed. The difference in mean tumor volume between treatment groups was compared for statistical significance using the unpaired, two-tailed, t-test. Blood samples were collected at various time points for determining prostate-specific antigen. Federal and institutional guidelines for animal care were followed.
# Six to eight week old athymic Balb/c nu/nu mice were obtained from Simonson Laboratories (Gilroy, Calif.) and acclimatized to laboratory conditions one week prior to tumor implantation. Xenografts were established by injecting 1×10^6 LNCaP cells subcutaneously near the small of the back suspended in 100 μl of RPMI 1640 and 100 μl of maltrigel (Collaborative Biochemical Products). When tumors reached between 400 mm^3 and 600 mm^3, mice were randomized in groups of four each to receive either 1×10^10 particles of CV787 at day 1 via the tail vein or paclitaxel, 20 mg/kg intraperitoneally (i.p.) daily for 4 days starting at day 2, versus controls treated with normal saline 0.1 ml i.v. at day 1 and then i.p. for 4 days. In addition, another group of mice received the combination of CV787 and paclitaxel at the same doses and schedule as above. CV787 was diluted in lyophilized buffer and injected into tail vein in a volume of 0.1 ml using a 28-gauge needle. The dose and route of administration of paclitaxel were selected according to studies in nude mice by Riondel et al., (1986) Cancer Chemother Pharmacol. 17:137. These authors conducted acute toxicity studies of paclitaxel in nude mice and selected the unit dose of 12.5 mg/kg daily, being 1/20th of the LD50 dose (lethal dose for 50% of animals). Tumors were measured weekly in two dimensions by external caliper and volume was estimated by the formula [length (mm)×width (mm)^2]/2. Animals were humanely killed when their tumor burden became excessive. Serum was harvested weekly by retro-orbital bleed. The difference in mean tumor volume between treatment groups was compared for statistical significance using the unpaired, two-tailed, t-test. Blood samples were collected at various time points for determining prostate-specific antigen (PSA). […]
# [6] = tested on: LNCaP prostate tumor xenografts; test: LNCaP xenograft antitumor efficacy, intratumorally administered CV787 with paclitaxel; format: in vivo, athymic Balb/c nu/nu mice; settings: 6 weeks after treatment
# Protocol: Six to eight week old athymic Balb/c nu/nu mice were obtained from Simonson Laboratories (Gilroy, Calif.) and acclimatized to laboratory conditions one week prior to tumor implantation. Xenografts were established by injecting 1×10^6 LNCaP cells subcutaneously near the small of the back suspended in 100 μl of RPMI 1640 and 100 μl of maltrigel (Collaborative Biochemical Products). When tumors reached between 400 mm^3 and 600 mm^3, mice were randomized in groups of four each to receive either 1×10^10 particles of CV787 at day 1 via the tail vein or paclitaxel, 20 mg/kg intraperitoneally (i.p.) daily for 4 days starting at day 2, versus controls treated with normal saline 0.1 ml i.v. at day 1 and then i.p. for 4 days. […] Tumors were measured weekly in two dimensions by external caliper and volume was estimated by the formula [length (mm)×width (mm)^2]/2. […]
# The in vivo antitumor efficacy of intratumorally administered CV787 and the interaction of CV787 in the combination with paclitaxel was assessed in the LNCaP mouse xenograft model as described above. […]
# All treatment groups received identical injections of the active agent or vehicle control into both the tumor and peritoneum. Tumor volume was measured just before the injection of test articles and once a week for 6 weeks thereafter.
# [7] = CV787 1×10^10 particles i.v. single dose, paclitaxel 20 mg/kg 4 doses
Structure (SMILES),body weight [1],"IC50 ([2]; Homo sapiens, 120 h, LNCaP cells, day 5, dose-response curve analysis) [nM]","cell survival ([2]; day 7 post treatment, % of the control, docetaxel 3.12 nM 24 hour before virus) [%]","relative tumor volume, % of baseline ([3]; four weeks after treatment, CV787 1×10^10 particles i.v. day 1, docetaxel 10 mg/kg i.v.)",change of Bcl-2 expression [4],"effect of single agent on tumor growth ([5]; CV787 1×10^10 particles i.v., docetaxel 5.0 mg/kg i.v.)","minimum tumor volume, % of the original tumor volume ([5]; docetaxel 5 mg/kg alone, reached by week 1)","course of tumor volume (FIG. 29) ([5]; docetaxel 5 mg/kg, CV787 1×10^10 particles (CV787 alone also 1×10^11 particles), 6 weeks)","cell survival ([2]; 6 days after virus infection, paclitaxel 6.25 nM) [%]",change in tumor growth (FIG. 24) ([3]; paclitaxel 2 mg/kg),change in tumor growth (FIG. 24) ([3]; paclitaxel 10 mg/kg),"time after treatment at which the regression was produced [5, 7] [weeks]","tumor regression produced [5, 7]","tumor growth inhibition compared with the control group ([5]; day 21, CV787 1×10^10 particles, paclitaxel 20 mg/kg) [%]","relative tumor volume, % of baseline ([5]; four weeks after treatment, CV787 1×10^10 particles i.v. day 1, paclitaxel 20 mg/kg i.p. daily for 4 days)","relative tumor volume, % of baseline ([5]; ten weeks after treatment, CV787 1×10^10 particles i.v., paclitaxel 20 mg/kg)","average tumor volume ([6]; CV787 1×10^7 particles/mm^3 intratumoral day 1, paclitaxel 15 mg/kg daily for four days) [mm^3]","average tumor volume, % of baseline ([6]; CV787 1×10^7 particles/mm^3 intratumoral, paclitaxel 15 mg/kg)"
CC(=O)O[C@@]12CO[C@@H]1C[C@H](O)[C@@]1(C)C(=O)[C@H](O)C3=C(C)[C@@H](OC(=O)[C@H](O)[C@@H](NC(=O)OC(C)(C)C)c4ccccc4)C[C@@](O)([C@@H](OC(=O)c4ccccc4)[C@H]21)C3(C)C [docetaxel],transient weight loss,8.14,95,49 % of baseline,did not observe a significant change,stabilization of tumor growth,approximately 50%,by week 6 has reached the starting tumor volume,–,–,–,–,–,–,–,–,–,–
CC(=O)O[C@H]1C(=O)[C@@]2(C)[C@H]([C@H](OC(=O)c3ccccc3)[C@]3(O)C[C@H](OC(=O)[C@H](O)[C@@H](NC(=O)c4ccccc4)c4ccccc4)C(C)=C1C3(C)C)[C@]1(OC(C)=O)CO[C@@H]1C[C@@H]2O [paclitaxel],–,–,–,–,–,–,–,–,100,progressive enlargement of the tumor,merely arrests tumor growth,2,partial tumor regression,70,31 % of baseline,149 % of baseline,630,166 % of baseline
